The species named for test [1] is Mus musculus. As to the kind of experiment: cells. The settings on record: Rattus norvegicus, Brain, 3 h.
The target of test [2] is Opioid receptor (Rattus norvegicus, UniProt P33533+P34975+P33535). As to the kind of experiment: (§1) Ability to displace 50% of (+/-) ethylketocyclazocine (2.8) in rat brain homogenate. In kind it is tissue-based.
The species named for test [3] is Rattus norvegicus. The test can be described thus: Ability to displace 50% of (-) naloxone(1.0) in rat brain homogenate.
The species entered for test [4] is Rattus norvegicus. The test can be described thus: Ability to displace 50% of [3H]- labeled DADLE in rat brain homogenate.
The species entered for test [5] is Rattus norvegicus. The test can be described thus: Relative potency in displacing [3H]- labeled DADLE in rat brain homogenate.
Test [6] has as its target Mu-type opioid receptor (Cavia porcellus, UniProt P97266). As to the kind of experiment: Ability to induce 50% of maximal effect in guinea pig ileum expressing Opioid receptor mu 1. In kind it is tissue-based.
The species named for test [7] is Rattus norvegicus. Described as §1.
The species entered for test [8] is Rattus norvegicus. The test can be described thus: Relative potency in displacing ((+/-) ethylketocyclazocine (2.8)) in rat brain homogenate.
The species entered for test [9] is Rattus norvegicus. As to the kind of experiment: Relative potency in displacing (-) naloxone(1.0) in rat brain homogenate.
For test [10], the target named is Mu-type opioid receptor (Cavia porcellus) (UniProt P97266). As to the kind of experiment: Relative potency to induce 50% of maximal effect in guinea pig ileum expressing Opioid receptor mu 1. Type of test: tissue-based.
Test [11] has as its target Delta-type opioid receptor (Mus musculus) (UniProt P32300). The test can be described thus: Relative potency to induce 50% of maximal effect in mouse vas deferens expressing Opioid receptor delta 1.
Test [12] concerns the target T1, Kappa-type opioid receptor (Homo sapiens, UniProt P41145). The test can be described thus: Relative potency to induce 50% of maximal effect in rabbit vas deferens expressing Opioid receptor kappa 1. Particulars: Oryctolagus cuniculus.
In test [13] the target is T1, Kappa-type opioid receptor. The test can be described thus: Ability to induce 50% of maximal effect in rabbit vas deferens expressing Opioid receptor kappa 1. In kind it is tissue-based, Oryctolagus cuniculus.

A word on the IC50: it is the concentration that inhibits the measured activity by half.

T1 sequence (P41145 whole entry): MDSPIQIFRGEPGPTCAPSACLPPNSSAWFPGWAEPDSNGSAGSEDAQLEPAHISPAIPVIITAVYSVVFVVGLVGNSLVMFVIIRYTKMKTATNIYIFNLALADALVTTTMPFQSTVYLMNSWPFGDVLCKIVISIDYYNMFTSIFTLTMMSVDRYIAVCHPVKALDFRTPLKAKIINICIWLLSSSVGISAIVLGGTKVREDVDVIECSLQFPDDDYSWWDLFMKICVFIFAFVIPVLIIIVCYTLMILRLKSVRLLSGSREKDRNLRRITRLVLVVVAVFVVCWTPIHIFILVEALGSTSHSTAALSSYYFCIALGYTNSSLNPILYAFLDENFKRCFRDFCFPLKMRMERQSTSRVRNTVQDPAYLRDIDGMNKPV
Sequence of Delta-type opioid receptor (Mus musculus) (P32300 whole entry, looked up): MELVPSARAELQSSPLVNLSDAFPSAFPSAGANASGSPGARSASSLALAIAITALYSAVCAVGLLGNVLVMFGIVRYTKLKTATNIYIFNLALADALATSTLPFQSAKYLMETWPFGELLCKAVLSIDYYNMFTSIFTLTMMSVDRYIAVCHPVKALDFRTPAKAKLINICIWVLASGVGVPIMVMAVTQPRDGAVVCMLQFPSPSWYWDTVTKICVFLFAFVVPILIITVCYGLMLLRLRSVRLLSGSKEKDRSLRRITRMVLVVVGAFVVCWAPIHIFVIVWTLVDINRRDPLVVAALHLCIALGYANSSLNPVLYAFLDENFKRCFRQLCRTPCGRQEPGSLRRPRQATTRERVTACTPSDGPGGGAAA
Sequence of Mu-type opioid receptor (Cavia porcellus) (P97266 whole entry): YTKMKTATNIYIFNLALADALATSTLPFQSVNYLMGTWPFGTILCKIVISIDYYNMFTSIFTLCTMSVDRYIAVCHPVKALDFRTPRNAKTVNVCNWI
Sequence of Mu-type opioid receptor (P97266 whole entry): as above

On to `CC(C)C[C@H](NC(=O)[C@H](Cc1ccccc1)NC(=O)CNC(=O)CNC(=O)[C@@H](N)Cc1ccc(O)cc1)C(=O)O` [ENKEPHALIN], for which 11 nM corresponded to half-maximal inhibition in test [1] (IC50).
With `CC[C@@]12CCN(CC3CC3)C(C(=O)c3ccc(O)cc31)[C@@H]2C` [ETHYLKETOCYCLAZOCINE], the IC50 in test [2] came out at 8.4 nM. This counts as single-digit nanomolar.
`CC1C2Cc3ccc(O)cc3C1(C)CCN2CCc1ccccc1` (stereo not drawn) [PHENAZOCINE]: the IC50 worked out at 82 nM in test [3]; 26 nM in test [4]; 9.8 nM in test [6]; 65 nM in [7]; 121 nM in test [13]. Besides, the Relative Potency was found to be 0.42 in test [5]; 0.13 in [8]; 2.4 in test [9]; 7.9 in test [10]; 1.2 in test [11]; 0.4 in test [12].

For the origin of these results see ChEMBL document CHEMBL1122397, “Synthesis and pharmacological characterization of (+/-)-5,9 alpha-dimethyl-2-[2-(4-fluorophenyl)ethyl]-2'-hydroxy-6,7-benzomorphan (fluorophen), a ligand suitable for visualization of opiate receptors in vivo” (J Med Chem, 1983).
